Test results as given in patent publication US9212205B2, “Nucleic acid binding compounds and methods of use” (University of Rochester, priority 2007, dated 2015).

How the values were obtained:
[1] = molecular target: HIV-1 frameshift regulatory RNA sequence (Seq I, SEQ ID NO:1); assay: SPR binding of immobilized dimers to RNA; settings: read-out: dissociation constant (Kd), affinity to the HIV-1 frameshift regulatory RNA sequence
Experimental: Graphical analysis of Surface Plasmon Resonance (SPR) data was carried out using DeltaGraph (Rockware Inc.). SPR analysis was conducted on a Reichert SR7000 refractometer using Reichert gold sensor slides that consist of a mixed self-assembled monolayer of thiol-PEG-alcohols and thio-PEG-carboxylic acids (˜9:1; PEG=polyethylene glycol). Amine functionalized small molecules were attached by […]/EDC coupling to the carboxy termini of the surface. After activating the monolayer, molecules were covalently attached through the addition of a 1 mg/mL solution of molecule in a sodium acetate buffer (20 mM, pH=5.5). Unreacted activated esters were quenched through the addition of ethanolamine. […]
To confirm this hypothesis, dissociation constants (Kd) were measured for dimers 1-1 and 1-3 by SPR (FIG. 7A) (Whitney et al., “Templated Ligand Assembly by Using G-quadruplex DNA and Dynamic Covalent Chemistry,” Angew. Chem. Int. Ed. 43:1143-1146 (2004); Lacy et al., “Influence of a Terminal Formamido Group on the Sequence Recognition of DNA by Polyamides,” J. Am. Chem. Soc. 124:2153-2163 (2002); Carrasco et al., “DNA Sequence Recognition by the Indolocarbazole Antitumor Antibiotic AT2433-B1 and Its Diastereoisomer,” Nucleic Acids Res. 30:1774-1781 (2002), each of which is hereby incorporated by reference in its entirety).

[2] = molecular target: (CUG) repeat RNA SEQ ID NO:7; assay: Filter binding assay (FBA), SEQ ID NO:7; settings: negative control; method (FBA or FT) not stated; read-out: KD for CUG repeat RNA (SEQ ID NO:7)
Experimental: A filter binding assay system was utilized to provide a rapid initial assessment of binding affinity. All binding studies were performed in PBS pH 7.2+1 mM MgCl2 at 22° C. Various concentrations of small molecules were incubated with 10 nM FAM-labeled RNA in a total volume of 50 μl for 20 minutes. A slot blot apparatus was then assembled with a wet nitrocellulose filter, on top of a wet nylon filter, on top of filter paper. 40 μl of each binding mixture was then loaded into an individual well of the apparatus and allowed to penetrate the filters for 10 minutes. The peptidic disulfides selected from the DCL efficiently bind to the nitrocellulose filter. In contrast, the FAM-labeled RNA strands penetrate the nitrocellulose filter and are bound by the nylon filter. As such, RNA bound by the peptidic library members remains bound on the nitrocellulose filter, and unbound RNA passes to the nylon filter.
Densitometric analysis of the ratio of labeled RNA on the nitrocellulose to nylon filters allows quantification of binding (FIG. 15A). All binding isotherms were fit to the logistic binding model (Equation 1 above). The repetitive nature of the target sequences may in some cases result in binding stoichiometries that are more complex than a simple 1:1 interaction.
To test specificity and to confirm the determined binding affinities, filter binding assays and fluorescence titrations were performed with SEQ ID NOS: 7-11 (Table 5), and the HIV-1 frameshift stimulating RNA hairpin used in preceding Examples (SEQ ID NO:1, Table 5). Fluorescence titrations were performed using a Varian Cary Eclipse spectrophotometer. 2 μl of 50 or 500 μM small molecule were titrated into 400 μl of FAM labeled RNA sequences an allowed to equilibrate for at least 10 minutes, or until no change in fluorescence spectra was observed. Changes in fluorescence emission at 518 nm (excitation at 490 nm) were measured. Raw data were corrected for dilution dependant changes, and Em518 was plotted against small molecule concentration and fit to the one site binding equation y=(bmaz*x)/(KD+x).) Competition experiments utilizing target RNA (SEQ ID NO:7) and a 20-fold molar excess of total yeast tRNA were performed to measure non-specific RNA binding (Luedtke et al., “RNA-Ligand Interactions: Affinity and Specificity of Aminoglycoside Dimers and Acridine Conjugates to the HIV-1 Rev Response Element,” Biochemistry 42:11391-11403 (2003), which is hereby incorporated by reference in its entirety). Compound 1-1, the HIV-1 RNA ligand, served as a negative control.

[3] = molecular target: (CUG)109 RNA (SEQ ID NO:8)-MBNL1 protein interaction; assay: Enzyme Fragmentation Complementation (EFC) assay of (CUG)109-MBNL1 binding inhibition; type: biochemical
Experimental: Small molecule-mediated inhibition of (CUG)109-MBNL1 binding was determined using an Enzyme Fragmentation Complementation (EFC) assay (Eglen et al., “β-Galactosidase Enzyme Fragment Complementation as A Novel Technology for High Throughput Screening,” Comb. Chem. High Throughput Screening 6:381-387 (2003), which is hereby incorporated by reference in its entirety). Briefly, this was performed by first immobilizing (CUG)109 RNA (SEQ ID NO:8) to a 96 well plate. Next, the immobilized RNA was incubated with recombinant MBNL1 fused to the PL enzyme donor peptide (PL-MBNL1, where “PL” is the commercial “ProLabel” enzyme donor peptide) (DiscoveRx PathHunter ProLabel Detection kit) in the presence of varying concentrations of small molecule inhibitor. The Enzyme Acceptor (EA-β-galactosidase) complement was then added, and the activity of the resulting plate—(CUG)109 bound (PL-MBNL1)-(EA-β-galactosidase) activity was monitored via a chemiluminsecent substrate. Only the EA-β-Gal bound to the PL-MBNL1 is capable of performing the luminescent reaction and, as such, any luminescence correlates to the amount of MBNL1 bound to the (CUG)109 immobilized on the plate. Wells lacking (CUG)109 RNA served as a background measure of non-specific luminescence and were subtracted from each experiment to yield a 0% bound value. Wells containing no small molecule inhibitor added served as 100% bound. […]

## CCc1nc2ccccc2cc1C(=O)N[C@@H](CSSC[C@H](NC(=O)c1cc2ccccc2nc1CC)C(=O)N1CCC[C@H]1C(=O)N[C@@H](Cc1ccccc1)C(=O)NCCCN)C(=O)N1CCC[C@H]1C(=O)N[C@@H](Cc1ccccc1)C(=O)NCCCN [dimer 1-1]
[1]
  Kd: 1900 nM
[2]
  Kd: > 40000 nM
[3]
  Ki, inhibition of the (CUG)n MBNL1 interaction: do not show any inhibitory effect
